Test results taken from PubChem BioAssay (NCI).
“And” between values parts separate entries of the source, which are not always exact repeats. Equal entries are not always repeated.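 How tested: cells in 96-well plates exposed to compound for 48 hours at five concentrations. At the GI50, growth is halved. TGI: concentration producing complete growth inhibition.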

How the values were obtained:
Test in all cases: NCI tumour cell line growth inhibition, 48 h
NCI-H460 lung = system: NCI-H460 lung
T-47D breast = system: T-47D breast
COLO 205 colon = system: COLO 205 colon
IGROV1 ovarian = system: IGROV1 ovarian
BT-549 breast = system: BT-549 breast
HL-60(TB) leukemia = system: HL-60(TB) leukemia
K-562 leukemia = system: K-562 leukemia

SMILES	TGI (NCI-H460 lung)	TGI (T-47D breast)	TGI (COLO 205 colon)	TGI (IGROV1 ovarian)	TGI (BT-549 breast)	TGI (HL-60(TB) leukemia)	GI50 (NCI-H460 lung) [nM]	GI50 (T-47D breast)	GI50 (COLO 205 colon) [µM]	GI50 (K-562 leukemia)	TGI (K-562 leukemia)	GI50 (IGROV1 ovarian)	GI50 (HL-60(TB) leukemia)	GI50 (BT-549 breast)
c1c[nH]c(CN2CCN(Cc3ncc[nH]3)CC2)n1	> 100 µM	> 100 µM	> 100 µM	> 100 µM	> 100 µM	> 100 µM								
O=C(c1ccco1)c1c(C(F)(F)F)n([O-])c2cc(Cl)c(Cl)cc2[n+]1=O	0.361 µM	15.3 µM	18.3 µM	2.53 µM		0.18 µM	121	7030 nM	1.82	0.173 µM	2.87 µM	113 nM	0.0812 µM	
Nc1nc(-c2ccccn2)c(-c2ccc3ncccc3n2)s1	> 25 µM	> 25 µM	> 25 µM	> 25 µM	> 25 µM	> 25 µM	> 25000	> 25000 nM	> 25	> 25 µM	> 25 µM	> 25000 nM	> 25 µM	> 25000 nM
NC1=Nc2cc(OCCCCN3Cc4ccccc4C3)c(OCC3CC3)cc2C12CCCC2	3.21 µM	4.29 µM	3.11 µM	2.98 µM	3.33 µM	3.55 µM	1670	1780 nM	1.45	0.398 µM	1.73 µM	1420 nM	1.73 µM	1570 nM
O=C(CNC(=O)c1cccc2ccccc12)Nc1ccccc1Oc1ccc(O)cc1	> 25 µM	> 25 µM	3.56 µM	> 25 µM	> 25 µM	2.06 µM	969	1540 nM	0.796	0.497 µM	> 25 µM	2330 nM	0.705 µM	1630 nM
CCCCCCCCCCCCNC(=O)N[C@H](C(=O)N[C@H]1/C=C/OCCNC(=O)/C=C/[C@H](C(C)C)NC1=O)C(C)C	61.3 µM	> 100 µM	> 57.4 µM	> 100 µM	33.6 µM	55.7 µM	6160	3140 nM	20	9.15 µM	> 100 µM	2120 nM	14.7 µM	2190 nM
COC(=O)[C@@H](C)C[C@H](Cc1ccccc1)NC(=O)c1nc([C@@H](C[C@H](C(C)C)N(C)C(=O)[C@@H](NC(=O)[C@H]2CC(=O)CCN2C)C(C)C)OC(C)=O)sc1C(C)C	> 5.85 µM	> 16.7 µM	1.69 µM	> 13.5 µM	2.7 µM	0.227 µM	270	80 nM	0.208	0.0684 µM	> 16.7 µM	111 nM	0.0529 µM	97.1 nM
COc1cc(-c2nn(-c3cccc(NC(=O)NCCNC(=O)c4ccccc4)c3)cc2-c2ccncc2)ccc1Cl	> 100 µM	8.79 µM		> 100 µM	8.05 µM		3560	1250 nM				4680 nM		2210 nM
O=c1c2cc(F)ccc2sc2c(NCCCNCCO)nc3ccc(F)cc3c12	3.24 µM	4.48 µM		2.65 µM	26.7 µM		1630	1940 nM		2.34 µM	6.68 µM	1250 nM		11100 nM
O=C(/C=C/c1ccccc1)c1ccccn1	32.7 µM and 49.1 µM	31.2 µM and 62.7 µM	32.9 µM and 45.7 µM	22.8 µM and 37.9 µM	37.4 µM and 52.4 µM	53.6 µM and 84.8 µM				4.36 µM and 21.6 µM	36.6 µM and > 100 µM		2.55 µM and 16.4 µM	
COc1cc(F)c(F)c(F)c1C(=O)c1cnc(NC2CCN(S(C)(=O)=O)CC2)nc1N	> 25 µM	> 24.1 µM	4.49 µM	21 µM	8.35 µM	6.31 µM	428	2640 nM	0.783	4.78 µM	> 25 µM	1120 nM	0.244 µM	3230 nM
CC(C)CC(=O)O[C@H]1C(=O)O[C@@H]2C[C@H]3[C@H](C)C(=O)C(O[C@@H]4O[C@H](CO)[C@@H](O)[C@H](O)[C@H]4O)=C[C@]3(C)[C@H]3[C@@H](O)[C@H](O)[C@]4(C(=O)O)OC[C@]32[C@@H]14	> 100 µM	> 100 µM	> 100 µM	> 100 µM	> 100 µM	> 100 µM	27500		> 100	24 µM	> 100 µM	35400 nM	41.3 µM	
Nc1nc(N)c2nc(CNc3ccc(C(=O)NC(CCC(=O)O)C(=O)O)cc3)cnc2n1 (stereo not drawn)	> 100 µM	> 100 µM	> 100 µM	> 100 µM	> 100 µM	> 100 µM	< 10	316 nM and 1370 nM		< 0.01 µM	> 100 µM	65.1 nM and < 10 nM	< 0.01 µM	399 nM and 213 nM
CC[C@@]12CC(C(=O)OC)=C3Nc4ccccc4[C@@]34CCN(C[C@H]3O[C@H]31)[C@@H]24	> 100 µM	> 100 µM	> 100 µM	> 100 µM	> 100 µM	81 µM	46600	27500 nM	34.4	23.2 µM	> 100 µM	52300 nM	24.7 µM	43500 nM
Cc1ccc(CNc2ccc(Cl)cc2NCc2ccc(C)c(O)c2)cc1O	15.9 µM	20.1 µM	15.9 µM	18 µM	14.1 µM	19.2 µM	8000	7400 nM	8.01	5.98 µM	18 µM	8660 nM	7.65 µM	6960 nM
CC(=O)O[C@@H]1[C@H]2O[C@H]2[C@H]2O[C@@]2(COC(=O)c2ccccc2)[C@H]1OC(C)=O	> 100 µM	> 100 µM	> 100 µM	> 100 µM	> 100 µM	> 100 µM					> 100 µM			
COc1ccc2c(c1)OCC1c3cc(OC)ccc3OC21 (stereo not drawn)	> 100 µM	> 100 µM	> 100 µM	> 100 µM	> 100 µM	> 100 µM	32100	35400 nM	38.2	56.7 µM	> 100 µM	49500 nM	4.93 µM	34400 nM
